Test system: mucosa of the stomach
Assay: Anti-ulcer test by oral administration (hydrochloric acid/ethanol-induced stomach mucosa damage)
Format: in vivo, male rats of the Wistar strain
Settings: 3 mg/kg orally in 0.5% CMC, 30 minutes before 150 M hydrochloric acid/60% ethanol; male Wistar rats, 8 per group; 1 hour after hydrochloric acid/ethanol
Description: To male rats of the Wistar strain (each group consisting of 8 rats) having a body weight of 160 to 180 g, which had been fasted for 24 hours, was orally administered 3 mg/kg of the compound of formula I in the form of a suspension in a 0.5% solution of carboxymethyl cellulose (CMC), and after 30 minutes, 1 ml/200 of […] hydrochloric acid/60% ethanol was orally administered to the rats. One hour after the administration of the hydrochloric acid/ethanol, the rats were subjected to laparotomy, and the length of the damaged part formed on the mucosa of the stomach was compared, as the mucosa damage coefficient, with that in the control group. Only the 0.5% solution of CMC not containing the compound of formula I was orally administered to the control group. The inhibition ratio was calculated according to the following formula: [formula] wherein A represents the value of the control group and B represents the value of the group to which the compound of formula I was administered.

CCOC(=O)c1ccc(CSc2nnc(-c3cccnc3)s2)nc1 [Example 1, 2-[(5-Ethoxycarbonylpyridin-2-yl)methylthio]-5-(3-pyridyl)-1,3,4-thiadiazole]
Inhibition Ratio (mucosa damage coefficient): 42.9%

CCOC(=O)c1ccc(C[S+]([O-])c2nnc(-c3cccnc3)s2)nc1 (centres unmarked) [Example 2, 2-[(5-Ethoxycarbonylpyridin-2-yl)methylsulfinyl]-5-(3-pyridyl)-1,3,4-thiadiazole]
Inhibition Ratio (mucosa damage coefficient): 91.5%

Source: US5106859A, “Certain 1,3,4-thiadiazole derivatives and anti-ulcer agent comprising said derivatives as active ingredient” (Tsumura & Co., priority 1988, dated 1992)
